Laboratory results reported in patent US11447504B2, “Macrocyclic chlorine substituted indole derivatives” (Bayer Aktiengesellschaft, priority 2017, dated 2022).
Structures can show the parent of a compound that is named as a salt.

Assays:
[1] = test system: MV-4-11; assay: Antiproliferation assay 7, MV-4-11; assay type: cell-based; conditions: Homo sapiens, MV4-11, 72 h, MV-4-11 cells, CellTiter-Glo, read-out: Antiproli MV-4-11 IC50 median
Method in brief: (§1)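 Anti-proliferative effect is determined from CellTiter-Glo signal after a 72-hour incubation at 37° C, with a time-zero reference plate measured in parallel.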

[2] = test system: SUDHL10; assay: Induction of cytotoxicity (Assay 6), SUDHL10; conditions: Homo sapiens, SU-DHL10, 5 h, read-out: Cytotox SUDHL10 IC50 (median), SUDHL10 cells, 5 hours, CellTiter-Glo
Procedure: Assay 6 Induction of Cytotoxicity Upon Treatment of Cells with Selected Compounds
Therefore, cytotoxicity assays were run in parallel in SUDHL5 and SUDHL10 cells.
The different cell lines were plated in culture medium (RPMI 1640 [GIBCO #22400-089]supplemented with 10% Fetal Bovine Serum) at a density of 3,300 cells in 30 μL/well in a sterile, solid black, flat bottom, polystyrene, TC-treated 384-well microplate (Corning #3571) using Multidrop Combi Reagent Dispenser. As a control, medium without cells was also added to the plate. Cells were incubated in a humidified incubator at 37° C. overnight. […] Rim wells were excluded. The cells were incubated for 5 hours in a humidified incubator at 37° C. After this incubation, 30 μL of CellTiter-Glo® Luminescent Cell Viability reagent (Promega, G7573) was added to each well using the Multidrop Combi Reagent Dispenser, followed by 15 minutes incubation on a shaker at room temperature. Finally, luminescence was read at 0.1 ms, with a gain of 3000 using the PHERAstar FS microplate reader (BMG Labtech).

[3] = test system: HMC-1-8; assay: Antiproliferation assay 7, HMC-1-8; assay type: cell-based; conditions: 72 h, HMC-1-8 cells, CellTiter-Glo, read-out: Antiproli HMC-1-8 IC50 median
Method in brief: as §1

[4] = test system: SUDHL5; assay: Induction of cytotoxicity (Assay 6), SUDHL5; conditions: Homo sapiens, SU-DHL-5, 5 h, read-out: Cytotox SUDHL5 IC50 (median), SUDHL5 cells, 5 hours, CellTiter-Glo
[5] = test system: SK-BR-3; assay: Antiproliferation assay 7, SK-BR-3; assay type: cell-based; conditions: Homo sapiens; SK-BR-3 cells, 72 hours, CellTiter-Glo; read-out: Antiproli SK-BR-3 IC50 median
Method in brief: as §1

[6] = test system: SUDHL5; assay: Antiproliferation assay 7, SUDHL5; assay type: cell-based; conditions: Homo sapiens, SU-DHL-5, 72 h, SUDHL5 cells, CellTiter-Glo, read-out: Antiproli SUDHL5 IC50 (median)
Method in brief: as §1

[7] = test system: SUDHL10; assay: Antiproliferation assay 7, SUDHL10; assay type: cell-based; conditions: Homo sapiens, SU-DHL10, 72 h, SUDHL10 cells, CellTiter-Glo, read-out: Antiproli SUDHL10 IC50 (median)
Method in brief: as §1

[8] = test system: SUDHL10; assay: Induction of caspase-3/7 activity (Assay 4), SUDHL10; assay type: cell-based; conditions: Homo sapiens, SU-DHL10, 3 h, SUDHL10 cells, Caspase-Glo 3/7, read-out: Caspase SUDHL10 EC50 (median)
Method in brief: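 SUDHL10 DLBCL cells treated with compounds for 3 hours at 37 °C in a humidified incubator. Caspase-3/7 activity read with Caspase-Glo 3/7 luminescent reagent. Medium-only background subtracted from all values.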

[9] = test system: KYSE-180; assay: Antiproliferation assay 7, KYSE-180; assay type: cell-based; conditions: Homo sapiens; KYSE-180 cells, 72 hours, CellTiter-Glo; read-out: Antiproli KYSE-180 IC50 median
Procedure: (§2) Assessment of the Anti-Proliferative Effect of Compounds in Different Cell Lines
(§3) The impact of compounds on the proliferation of different cell lines was assessed using the CellTiter-Glo® Luminescent Cell Viability reagent from Promega (G7573).
(§4) In parallel, cells were plated in a reference (day 0) plate for time zero determination.
(§5) Rim wells were excluded. The cells were incubated for 72 hours in a humidified incubator at 37° C. The day 0 plate was measured by adding 30 μL/well of CTG solution (CellTiter-Glo® Luminescent Cell Viability reagent, Promega G7573) to time zero wells in the reference plate followed by a 10 minutes incubation and luminescence reading at 0.1 ms. using the PHERAstar FS microplate reader (BMG Labtech).
(§6) After 72 hours incubation, the treated plates were measured in the same way as the day 0 plate mentioned above.

[10] = test system: SUDHL5; assay: Induction of caspase-3/7 activity (Assay 4), SUDHL5; assay type: cell-based; conditions: Homo sapiens, SU-DHL-5, 3 h, SUDHL5 cells, Caspase-Glo 3/7, read-out: Caspase SUDHL5 EC50 (median)
Method in brief: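 DLBCL cells treated with compounds for 3 hours at 37° C. Caspase-3/7 activity measured by Caspase-Glo 3/7 luminescence, with medium-only background subtracted.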

[11] = test system: AMO-1; assay: Antiproliferation assay 7, AMO-1; assay type: cell-based; conditions: Homo sapiens, AMO1, 72 h, AMO-1 cells, CellTiter-Glo, read-out: Antiproli AMO-1 IC50 median
Method in brief: as §1

[12] = test system: A2058; assay: Antiproliferation assay 7, A2058; assay type: cell-based; conditions: Homo sapiens; A2058 cells, 72 hours, CellTiter-Glo; read-out: Antiproli A2058 IC50 median
Procedure: as §2, §3, §4, §5, §6

Q: With Cc1c2c(nn1C)CN(C)CCCCn1c(C(=O)O)c(CCCOc3cccc4ccccc34)c3ccc(Cl)c-2c31 (single isomer, unassigned; enantiomer 1) [Example 12, (+)-4-chloro-2,3,14-trimethyl-7-[3-(naphthalen-1-yloxy)propyl]-10,11,12,13,14,15-hexahydro-2H-pyrazolo[3′,4′:8,9][1,6]diazacycloundecino[10,11,1-hi]indole-8-carboxylic acid-N-ethylethanamine Salt (Enantiomer 1)] as the molecule, how does the IC50 [1] read?
A: 0.441 µM

Q: What about the IC50 [2] of the same molecule?
A: 0.14 µM

Q: And the IC50 [3]?
A: 1.58 µM

Q: And the IC50 [4]?
A: 0.083 µM

Q: What about the IC50 [5] of the same molecule?
A: 0.667 µM

Q: And the IC50 [6]?
A: 0.17 µM

Q: What about the IC50 [7] of the same molecule?
A: 0.14 µM

Q: And the EC50 [8]?
A: 0.097 µM

Q: What about the IC50 [9] of the same molecule?
A: 3.79 µM

Q: What about the EC50 [10] of the same molecule?
A: 0.064 µM

Q: What about the IC50 [11] of the same molecule?
A: 0.335 µM

Q: What about the IC50 [12] of the same molecule?
A: 4.83 µM
